Active and inactive are the calls of the source. The rule behind the calls is not given here.
System: rodent carcinogenicity bioassays, tumor incidence
Assay: CCRIS carcinogenicity studies
Conditions: Species: RAT, Route: INTRAPERITONEAL, Dose: 0, Dose: 0
Outline: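 Archive of carcinogenicity, mutagenicity, tumor promotion and tumor inhibition results drawn from journals, NCI reports and other sources, expert-reviewed; covers 1985-2011 and is no longer updated.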

Measured: carcinogen call

Nc1ccn([C@@H]2O[C@H](CO)[C@@H](O)C2O)c(=O)n1 (some centres undefined)
inactive: Strain/Sex: SPRAGUE-DAWLEY/FEMALE, 5, 25 MG/KG IN PHYSIOLOGICAL SALINE 5/WK FOR 72 WK (STUDY DURATION: LIFETIME), 5, 25 MG/KG IN PHYSIOLOGICAL SALINE 5/WK FOR 72 WK (STUDY DURATION: LIFETIME) inactive; negative | Strain/Sex: SPRAGUE-DAWLEY/FEMALE, 500, 1500 MG/KG IN PHYSIOLOGICAL SALINE ON D 1, 3, 5 WITHIN 3 MO, CYCLE REPEATED 6 TIMES (STUDY DURATION: LIFETIME), 500, 1500 MG/KG IN PHYSIOLOGICAL SALINE ON D 1, 3, 5 WITHIN 3 MO, CYCLE REPEATED 6 TIMES (STUDY DURATION: LIFETIME) inactive; negative | Strain/Sex: SPRAGUE-DAWLEY/MALE, 5, 25 MG/KG IN PHYSIOLOGICAL SALINE 5/WK FOR 72 WK (STUDY DURATION: LIFETIME), 5, 25 MG/KG IN PHYSIOLOGICAL SALINE 5/WK FOR 72 WK (STUDY DURATION: LIFETIME) inactive; negative | Strain/Sex: SPRAGUE-DAWLEY/MALE, 500, 1500 MG/KG IN PHYSIOLOGICAL SALINE ON D 1, 3, 5 WITHIN 3 MO, CYCLE REPEATED 6 TIMES (STUDY DURATION: LIFETIME), 500, 1500 MG/KG IN PHYSIOLOGICAL SALINE ON D 1, 3, 5 WITHIN 3 MO, CYCLE REPEATED 6 TIMES (STUDY DURATION: LIFETIME) inactive; negative

— PubChem BioAssay AID1259411 (Chemical Carcinogenesis Research Information System (CCRIS), 2018)
